Results from US20100016313A1, “INTESTINAL ALKALINE PHOSPHATASE MODULATORS AND USES THEREOF” (Burnham Institute for Medical Research, priority 2008, published 2010).

T1: human IAP (Homo sapiens, UniProt P09923)
T1 construct: made in house; host or cells: COS-1 cells, transient expression from pCMV-Script; conditioned serum-free medium used as enzyme stock
T1 sequence (P09923 20-503 limits assumed): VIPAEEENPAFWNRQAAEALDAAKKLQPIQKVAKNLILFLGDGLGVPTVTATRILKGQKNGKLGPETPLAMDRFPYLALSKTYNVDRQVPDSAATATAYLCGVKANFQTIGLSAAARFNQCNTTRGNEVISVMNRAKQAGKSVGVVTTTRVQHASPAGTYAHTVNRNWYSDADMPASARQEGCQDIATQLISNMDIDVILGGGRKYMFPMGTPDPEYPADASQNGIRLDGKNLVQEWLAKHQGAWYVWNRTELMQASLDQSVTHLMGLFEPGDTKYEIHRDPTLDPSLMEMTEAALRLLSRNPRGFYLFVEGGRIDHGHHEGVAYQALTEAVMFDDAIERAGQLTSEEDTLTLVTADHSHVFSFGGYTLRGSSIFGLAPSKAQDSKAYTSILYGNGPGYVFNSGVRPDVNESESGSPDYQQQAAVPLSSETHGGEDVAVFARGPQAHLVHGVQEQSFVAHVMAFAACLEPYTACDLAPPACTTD


Key:
human IAP = molecular target: T1, human IAP; test: IAP assay using CDP-Star (chemiluminescent, dose response); type: biochemical; conditions: IAP modulators, Tables A-H, positive = inhibitor; for IC50: negative Hill coefficient = activator; for n (Hill coefficient): negative = activator
Excerpt: An expression vector pCMV-Script containing cDNA for human IAP, TNAP, PLAP, GCAP, mouse TNAP, dIAP, EAP or gIAP in secreted form (FLAG-tagged) is transfected into COS-1 cells for transient expression using a standard electroporation method. The GPI anchoring site is replaced by a FLAG sequence to make the proteins secreted into the media as well as to test their kinetics in a form immobilized by anti-FLAG antibody (Narisawa, et al, 2007). Medium is changed to serum free medium Opti-MEM (Invitrogen) 24 h later, and media containing secreted proteins was collected 66 hr after electroporation. Conditioned medium filtered by a 2 μm cellulose acetate membrane is supplemented with 0.1% BSA, aliquotted and stored at −80° C.
Human IAP is produced on a large scale to be used in the primary high throughput screening. For a maximum of 200,000 wells including a blank and negative control in each plate, approximately 1600 ml of the recombinant human IAP working solution (8 μl/well×200,000) is used. The working solution is a 1:80 dilution of the stock solution that has AP activity showing ΔOD405 (velocity) ˜300 in 5 min pNPP calorimetric assay. Therefore a minimum of 20 ml of the stock solution (1600÷80) is needed. An enzyme stock is prepared from ten 15 cm φ plates of COS-1 cells using 100 μg plasmid DNA [ten plates×(10 μg DNA/1×10^7 cells per 15 cm φ plate)].
Compound aliquots (4 μL at […] in 10% DMSO) are added to 8 μL of human IAP working solution of a the human IAP stock solution diluted 1:80 in assay buffer (250 mM DEA, pH 9.8, −2.5 mM MgCl2, −0.05 μM ZnCl2). The solution of substrate CDP-Star, disodium 2-chloro-5-(4-methoxyspiro{1,2-dioxetane-3,2′(5′-chloro)-tricyclo[3.3.1.1]3,7 decan}-4-yl)-1-phenyl phosphate (New England Biolabs), (8 μL of 125 μM in water) is added to each well. […] Dispensing of human IAP working solution and CDP-Star is processed using a WellMate bulk dispenser (Matrix). Plates (white 384-well small volume Greiner 784075) are incubated at room temperature for 30 min, and the luminescence signal is measured using a PerkinElmer EnVision multi-mode plate reader. L-Phenylalanine (1 mM final concentration) and 2% DMSO is utilized as an inhibition control and blank, respectively. Data analysis is processed using CBIS software (ChemInnovations, Inc).
The compound is diluted ([…] to 0.03 mM) and incubated with the human IAP enzyme for 30 min prior to addition of substrate. At the same time, human TNAP, human PLAP, human GCAP, mouse TNAP, mouse dIAP, mouse EAP and mouse gIAP is tested to determine enzyme specificity.

[1] = Kinetic parameters of recombinant mouse dIAP, gIAP and EAP using p-NPP as substrate; type: biochemical
Excerpt: The epithelium of the mouse small intestine expresses two intestine specific AP genes, Akp3 and Akp6, and low levels of Akp5, which is not intestine specific (Narisawa, et al, 2007). AP proteins encoded by Akp3, Akp5 and Akp6 were designated duodenal IAP or dIAP, embryonic AP or EAP and global IAP or gIAP, respectively.

[2] = p-NPP as substrate, pH 9.8, means ± SD

IC50 (human IAP) [µM]	n (Hill coefficient) (human IAP)	Molecule	further results
> 100	–	Cc1ccc(-c2cc(C(=O)O)[nH]n2)cc1C [Compound B8, 3-(3,4-dimethylphenyl)-1H-pyrazole-5-carboxylic acid]	–
13.8	−2.03	O=C1C2CCCCC2C(=O)N1c1ncn[nH]1 (centres unmarked) [Compound F1, 2-(1H-1,2,4-triazol-5-yl)-hexahydro-1H-isoindole-1,3(2H)-dione]	–
0.724	0.616	O=C1C2CC=CCC2C(=O)N1c1nc(CCc2ccccc2)n[nH]1 (centres unmarked) [Compound F9, 2-(3-phenethyl-1H-1,2,4-triazol-5-yl)-3a,4,7,7a-tetrahydro-1H-isoindole-1,3(2H)-dione]	–
0.503	1.28	O=C1C2CC=CCC2C(=O)N1c1nc(Cc2ccccc2)n[nH]1 (centres unmarked) [Compound F8, 2-(3-benzyl-1H-1,2,4-triazol-5-yl)-3a,4,7,7a-tetrahydro-1H-isoindole-1,3(2H)-dione]	–
> 100	–	Cc1ccc(-c2cc(C(=O)O)[nH]n2)c(C)c1 [Compound B7, 3-(2,4-dimethylphenyl)-1H-pyrazole-5-carboxylic acid]	–
> 100	–	CCOC(=O)c1cc(-c2ccc(Cl)cc2)n[nH]1 [Compound B17, ethyl 3-(4-chlorophenyl)-1H-pyrazole-5-carboxylate]	–
> 100	–	O=C(c1[nH]nc2c1COc1ccccc1-2)N1CCCC1 [Compound E2, (2,4-dihydrochromeno[3,4-c]pyrazol-3-yl)(pyrrolidin-1-yl)methanone]	–
0.0613	1.01	O=C1C2CCCCC2C(=O)N1c1nc(Cc2ccccc2)n[nH]1 (centres unmarked) [Compound F2, 2-(3-benzyl-1H-1,2,4-triazol-5-yl)-hexahydro-1H-isoindole-1,3(2H)-dione]	–
> 100	–	Cn1nc(C(=O)O)cc1-c1ccc(F)cc1 [Compound D2, 5-(4-fluorophenyl)-1-methyl 1H-pyrazole-3 carboxylic acid]	–
13.9	0.533	O=C(O)c1[nH]nc2c1COc1ccccc1-2 [Compound E1, 2,4-dihydrochromeno[3,4-c]pyrazole-3-carboxylic acid]	–
1.75	0.694	O=C1C2CCCCC2C(=O)N1c1nc(CCc2ccccc2)n[nH]1 (centres unmarked) [Compound F3, 2-(3-phenethyl-1H-1,2,4-triazol-5-yl)-hexahydro-1H-isoindole-1,3(2H)-dione]	–
7.85	−1.92	O=C(O)c1cc(-c2ccccc2O)n[nH]1 [Compound B2, 3-(2-hydroxyphenyl)-1H-pyrazole-5-carboxylic acid]	–
62.7	−5	Cc1cc(O)oc2nnc(-c3ccccc3)c1-2 [Compound E6, 4-methyl-3-phenylpyrano[2,3-c]pyrazol-6-ol]	–
> 100	–	CCOC(=O)c1cc(-c2ccc3c(c2)OCCO3)n[nH]1 [Compound B16, ethyl 3-(2,3-dihydrobenzo[b][1,4]dioxyin-6-yl)-1H-pyrazole-5-carboxylate]	–
> 100	–	CCOc1ccc(Cl)cc1S(=O)(=O)Nc1cccnc1 [Compound G3, 5-chloro-2-ethoxy-N-(pyridin-3-yl)benzenesulfonamide]	–
0.0625	0.8895	O=C1C2CC=CCC2C(=O)N1c1nc(-c2ccccc2)n[nH]1 (centres unmarked) [Compound F5, 2-(3-phenyl-1H-1,2,4-triazol-5-yl)-3a,4,7,7a-tetrahydro-1H-isoindole-1,3(2H)-dione]	–
23.7	−1.49	COc1ccc(-c2n[nH]c3oc(=O)cc(C)c23)cc1 [Compound E4, 3-(4-methoxyphenyl)-4-methylpyrano[2,3-c]pyrazol-6(1H)-one]	–

The remaining lines, values behind:

Molecule	IC50 (human IAP) [µM]	n (Hill coefficient) (human IAP)	further results
COC(=O)c1cc(-c2ccc(C)cc2)[nH]n1 [Compound A9, methyl 5-(4-methylphenyl)-1H-pyrazole-3-carboxylate]	> 100	–	–
COC(=O)c1cc(-c2ccc(Br)cc2)n[nH]1 [Compound A7, methyl 5-(4-bromophenyl)-1H-pyrazole-3-carboxylate]	> 100	–	–
CCCCOc1ccc(-c2cc(C(=O)OC)[nH]n2)cc1 [Compound B15, methyl 3-(4-butoxyphenyl)-1H-pyrazole-5-carboxylate]	> 100	–	–
CC(C)(C)C(=O)COC(=O)c1cc(-c2ccc(Br)cc2)[nH]n1 [Compound A12, 3,3-dimethyl-2-oxobutyl 5-(4-bromophenyl)-1H-pyrazole-3-carboxylate]	42.8	−1.09	–
COC(=O)c1cc(-c2ccc([N+](=O)[O-])cc2)[nH]n1 [Compound A10, methyl 5-(4-nitrophenyl)-1H-pyrazole-3-carboxylate]	> 100	–	–
CCOC(=O)c1cc(-c2cccc(C(F)(F)F)c2)[nH]n1 [Compound A6, ethyl 5-[3-(trifluoromethyl)phenyl]-1H-pyrazole-3-carboxylate]	45.4	−1.45	–
Nc1ccc(-c2cc(C(=O)O)n[nH]2)cc1 [Compound A5, 5-(4-aminophenyl)-1H-pyrazole-3-carboxylic acid]	> 100	–	–
EAP: recombinant mouse embryonic alkaline phosphatase encoded by Akp5 (protein, UniProt P24823 19-502, looked up) Alkaline phosphatase, germ …: VIPVEEENPAFWNRKAAEALDAAKKLKPIQTSAKNLVILMGDGMGVSTVTATRILKGQQQGHLGPETQLAMDRFPHMALSKTYNTDKQIPDSAGTGTAFLCGVKTNMKVIGLSAAARFNQCNTTWGNEVVSVMHRAKKAGKSVGVVTTTSVQHASPAGTYAHTVNRGWYSDAQMPASALQDGCKDISTQLISNMDIDVILGGGRKFMFPKGTPDQEYPTDTKQAGTRLDGRNLVQEWLAKHQGARYVWNRSELIQASLNRSVTHLMGLFEPNDMKYEIHRDPAQDPSLAEMTEVAVRMLSRNPKGFYLFVEGGRIDHGHHETVAYRALTEAVMFDSAVDKADKLTSEQDTMILVTADHSHVFSFGGYTQRGASIFGLAPFKAEDGKSFTSILYGNGPGYKLHNGARADVTEEESSNPTYQQQAAVPLSSETHSGEDVAIFARGPQAHLVHGVQEQNYIAHVMAFAACLEPYTDCGLASPAGQSS	–	–	Km [1, 2]: 140 ± 30 µM; kcat [1, 2]: 8.4 ± 1.1 s⁻¹
dIAP: recombinant mouse duodenal intestinal alkaline phosphatase encoded by Akp3 (protein, UniProt P24822 20-528, looked up) Intestinal-type alkaline …: VIPVEEENPAFWNKKAAEALDAAKKLQPIQTSAKNLIIFLGDGMGVPTVTATRILKGQLEGHLGPETPLAMDRFPYMALSKTYSVDRQVPDSASTATAYLCGVKTNYKTIGLSAAARFDQCNTTFGNEVFSVMYRAKKAGKSVGVVTTTRVQHASPSGTYVHTVNRNWYGDADMPASALREGCKDIATQLISNMDINVILGGGRKYMFPAGTPDPEYPNDANETGTRLDGRNLVQEWLSKHQGSQYVWNREQLIQKAQDPSVTYLMGLFEPVDTKFDIQRDPLMDPSLKDMTETAVKVLSRNPKGFYLFVEGGRIDRGHHLGTAYLALTEAVMFDLAIERASQLTSERDTLTIVTADHSHVFSFGGYTLRGTSIFGLAPLNALDGKPYTSILYGNGPGYVGTGERPNVTAAESSGSSYRRQAAVPVKSETHGGEDVAIFARGPQAHLVHGVQEQNYIAHVMASAGCLEPYTDCGLAPPADESQTTTTTRQTTITTTTTTTTTTTTPVHN	–	–	Km [1, 2]: 1100 ± 340 µM; kcat [1, 2]: 339 ± 13 s⁻¹; Km ([1]; pNPP assay, recombinant enzyme, repeated in text): 1100 ± 340 µM
